Molecular target: Autotaxin (Homo sapiens, UniProt Q13822)
Test: Inhibition of human recombinant ATX lysophospholipase activity expressed in insect sf9 cells using FS-3 fluorogenic substrate preincubated for 10 mins measured after 5 and 25 mins by fluorometric analysis

Row | Ki | SMILES
1 | 0.024 µM | CCCCCCCCCC(=O)Nc1ccc(C(O)P(=O)(O)O)cc1 (configuration not stated)
2 | 0.024 µM | CCCCCCCCCCCCCC(=O)Nc1ccc(C(O)P(=O)(O)O)cc1 (configuration not stated)
